Read-outs that look alike come from different tables or passages of the source.
What was measured:
[1] = biological target: T1, human α1A adrenergic receptor (Homo sapiens, UniProt P35348); test: Test example 4: human α1A adrenergic receptor agonist activity (Ca flux, Fura-2); format: cell-based; conditions: Test example 4, maximum response to norephinephrine taken as 100%; for Emax: read-out: α1A receptor I.A.
T1 construct: expressed in transfected cells; host or cells: HEK293 cells, pcDNA3.1(−), geneticin-selected
T1 sequence (P35348 1-466): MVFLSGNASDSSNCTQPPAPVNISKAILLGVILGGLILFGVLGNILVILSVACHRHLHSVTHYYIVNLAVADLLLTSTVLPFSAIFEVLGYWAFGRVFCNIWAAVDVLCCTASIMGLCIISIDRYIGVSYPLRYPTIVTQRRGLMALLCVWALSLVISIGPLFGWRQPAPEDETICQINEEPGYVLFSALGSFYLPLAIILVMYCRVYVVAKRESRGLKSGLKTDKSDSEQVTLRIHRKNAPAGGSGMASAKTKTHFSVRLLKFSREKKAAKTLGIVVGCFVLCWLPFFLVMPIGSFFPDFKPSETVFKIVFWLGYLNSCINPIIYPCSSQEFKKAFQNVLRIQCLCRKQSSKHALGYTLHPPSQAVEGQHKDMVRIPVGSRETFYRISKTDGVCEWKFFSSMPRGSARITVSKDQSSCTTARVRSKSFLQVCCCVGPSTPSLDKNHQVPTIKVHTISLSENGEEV
Procedure: Human α1A adrenergic receptor agonist activity is determined by using HEK293 cells transfected with pcDNA3.1(−) (Invitrogen) to which human α1A gene has been inserted. These cells are cultured in a DMEM medium containing 10% fetal bovine serum, 400 μg/mL geneticin (Gibco BRL), 100 U/ml penicillin and 100 μg/ml streptomycin. […] After carrying out the loading for 30 minutes in a CO2 incubator, excess Fura-2AM is removed by washing the cells twice with the assay buffer. The cells obtained after the centrifuge is prepared to 5×10^6 cells/ml by using the assay buffer, and aliquoted into a 96-well UV plate (manufactured by Corning Inc.) to give a cell plate (80 μl/well). […] After the measurement for about 30 seconds, 20 μl of the test sample from the sample plate is added to the cell plate and the measurement is continued for another 270 seconds. Ca flux caused by the test compound is obtained from the peak height difference between the maximum value of fluorescence intensity ratio at 340 nm and 380 nm after the addition of the test compound and the fluorescence intensity ratio before the addition of the test compound. Maximum response to norephinephrine as a positive control is taken as 100%, and the maximum response ratio of each test compound is obtained as Intrinsic Activity [I.A. (%)].

[2] = biological target: T2, human β3 adrenergic receptor (Homo sapiens, UniProt P13945); test: Test example 1-B: human β3 adrenergic receptor agonist activity (cAMP-Screen, 96-well); format: cell-based; conditions: for Emax: 0.5 h, read-out: β3 receptor I.A.; for EC50: CHO cells with human β3 gene, cAMP
T2 construct: used as a probe to obtain the full length human β3 gene from a human genomic library (Clonetech); expressed in transfected cells; host or cells: CHO (Chinese hamster ovary) cells, pcDNA3, geneticin-selected
Procedure: Human β3 adrenergic receptor agonist activity is determined using CHO (Chinese hamster ovary) cells transfected with pcDNA3 (Invitrogen) to which human β3 gene has been inserted. […] This human β3 cDNA fragment is used as a probe to obtain the full length human β3 gene from a human genomic library (Clonetech). The above cells are cultured in a Ham's F-12 medium containing 10% fetal bovine serum and 400 μg/mL geneticin (Invitrogen). After seeding these cells into a 96-well plate (2×10^4 cells/well) and culturing them for about 20 hours, they are allowed to stand in a serum-free Ham's F-12 medium (80 μL) for 15 minutes. The test compound is first dissolved in DMSO, serially diluted with Ham's F-12 comprising 100 mmol/L HEPES and 1 mmol/L isobutylmethylxanthine, and then 20 μL of the solution is added to the cells. After the cells are cultured for 30 minutes, the medium is removed, followed by addition of assay/lysis buffer (0.1 ml) included in cAMP-Screen Kit (manufactured by Applied Biosystems). The cells are incubated for 30 minutes at 37° C. The resulting cell lysate is determined to cAMP quantitation by using cAMP-Screen kit described above.

[3] = biological target: T3, human β1 adrenergic receptor (Homo sapiens, UniProt P08588); test: Test example 2-B: human β1 adrenergic receptor agonist activity; format: cell-based; conditions: 0.5 h; read-out: β1 receptor I.A.
T3 construct: expressed in transfected cells; host or cells: CHO (Chinese hamster ovary) cells, pcDNA3

[4] = biological target: T4, human β2 adrenergic receptor (Homo sapiens, UniProt P07550); test: Test example 3-B: human β2 adrenergic receptor agonist activity; format: cell-based; conditions: read-out: β2 receptor I.A.
T4 construct: expressed in transfected cells; host or cells: CHO (Chinese hamster ovary) cells, pcDNA3

[5] = tested on: rat under pentobarbital anesthesia; test: Test example 9: effect on blood pressure and heart rate of a rat under pentobarbital anesthesia; format: in vivo; conditions: male SD rat, 3 mg/kg intravenous bolus; greatest change of mean blood pressure relative to before administration; mean ± standard deviation
Procedure: After measuring blood pressure and heart rate of a rat under pentobarbital anesthesia, an effect of intravenous bolus administration of a test compound on blood pressure and heart rate can be determined. To a male SD rat (Japan SLC Inc.), sodium pentobarbital (Tokyo Chemical Industry Co., Ltd.) is intraperitoneally administered for induction of anesthesia (50 mg/kg). As maintenance anesthetics, sodium pentobarbital is subcutaneously administered (25 mg/kg). Left femoral vein is exposed and stripped, and then a polyethylene tube SP10 (connected to a three-way stopcock via ¼ vein needle) which has been filled with physiological saline is inserted and left in the vein.
Left medial femoral region is cut to expose and strip the femoral artery, and then a polyethylene tube (SP31, connected to a three-way stopcock via 22 G injection needle by TERUMO Corporation) which has been filled with heparin physiological saline is inserted and connected to a pressure transducer. Blood pressure is measured from the pressure transducer by using a modified pressure amplifier (AP-641 G, Nihon Kohden Corporation). Heart rate is measured by using the Heart rate Counter (AT-601 g, Nihon Kohden Corporation) while having the pulse wave of the blood pressure as a trigger. The blood pressure, mean blood pressure and heart rate are transmitted to the data recorder for recordation. In addition, the mean blood pressure is recorded using a modified pressure amplifier (AP-641 G) according to the equation of {diastolic blood pressure+(systolic blood pressure−diastolic blood pressure)/3}.
Blood pressure and heart rate measurement is started, and after confirming that each value remains almost constant, the test compound (3 mg/kg) is administered to the left femoral vein for 30 seconds. Specifically, the test compound with 3 mg/mL concentration is bolus administered at the administration dose of 1 mL/kg. Relative value (%) at each time point compared to the mean blood pressure and the heart rate before the administration is obtained for each individual. […]

[6] = tested on: urinary bladder smooth muscle isolated from common marmoset; test: Test example 7: relaxant activity on urinary bladder smooth muscle isolated from common marmoset; conditions: strips contracted by 40 mmol/L KCl, papaverine 10^−4 mol/L relaxation = 100%
Procedure: Specifically, a common marmoset (CLEA Japan, Inc.) is bled to exsanguinated death, and then the urinary bladder is taken out of the marmoset via laparotomy. […] A resting tension of 1 g is applied to the strips, which is then equilibrated for more than 30 minutes. […] The final concentration is 10^−9, 10^−8, 10^−7, 10^−8, 10^−5 and 10^−4 mol/L. Upon the completion of the relaxation response to the test compound at the highest concentration, papaverine with final concentration of 10^−4 mol/L is added and the maximum relaxation response is obtained for each strip. This relaxation response is taken as 100%, and the relaxation ratio (%) is obtained for the test compound at the concentrations of 10^−5 and 10^−4 mol/L.

[7] = biological target: T2, human β3 adrenergic receptor; test: Test example 1-A: human β3 adrenergic receptor agonist activity (cAMP EIA, 24-well); format: cell-based; conditions: Table 3, maximum response to isoproterenol taken as 100%
Procedure: Human β3 adrenergic receptor agonist activity is determined using CHO (Chinese hamster ovary) cells transfected with pcDNA3 (Invitrogen) to which human β3 gene has been inserted. […] This human β3 cDNA fragment is used as a probe to obtain the full length human β3 gene from a human genomic library (Clonetech). The above cells are cultured in a Ham's F-12 medium containing 10% fetal bovine serum and 400 μg/mL geneticin (Invitrogen).

T3 sequence (P08588 whole entry): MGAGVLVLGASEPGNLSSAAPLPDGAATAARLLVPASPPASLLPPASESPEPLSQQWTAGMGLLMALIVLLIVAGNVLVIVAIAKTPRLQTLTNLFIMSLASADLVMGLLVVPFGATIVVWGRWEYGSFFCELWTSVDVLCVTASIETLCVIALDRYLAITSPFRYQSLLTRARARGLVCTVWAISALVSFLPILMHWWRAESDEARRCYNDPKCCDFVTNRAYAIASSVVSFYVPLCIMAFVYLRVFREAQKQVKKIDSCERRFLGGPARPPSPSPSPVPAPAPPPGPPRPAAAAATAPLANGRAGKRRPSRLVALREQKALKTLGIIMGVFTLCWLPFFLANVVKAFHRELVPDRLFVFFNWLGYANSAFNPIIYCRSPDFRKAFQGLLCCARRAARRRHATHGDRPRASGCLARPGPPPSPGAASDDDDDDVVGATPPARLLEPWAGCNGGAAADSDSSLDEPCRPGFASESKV
T4 sequence (P07550 whole entry): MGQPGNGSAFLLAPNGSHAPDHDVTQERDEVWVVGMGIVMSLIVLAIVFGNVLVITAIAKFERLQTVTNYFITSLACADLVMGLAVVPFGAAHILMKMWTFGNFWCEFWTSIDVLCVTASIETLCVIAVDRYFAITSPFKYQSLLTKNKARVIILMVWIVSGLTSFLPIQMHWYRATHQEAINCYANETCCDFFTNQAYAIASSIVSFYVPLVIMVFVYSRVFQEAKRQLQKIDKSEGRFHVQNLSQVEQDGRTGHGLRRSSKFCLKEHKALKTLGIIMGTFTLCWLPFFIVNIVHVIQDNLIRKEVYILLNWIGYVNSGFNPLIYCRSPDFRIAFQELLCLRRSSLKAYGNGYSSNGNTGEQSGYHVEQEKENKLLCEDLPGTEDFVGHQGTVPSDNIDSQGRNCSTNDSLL
T2 sequence (P13945 whole entry): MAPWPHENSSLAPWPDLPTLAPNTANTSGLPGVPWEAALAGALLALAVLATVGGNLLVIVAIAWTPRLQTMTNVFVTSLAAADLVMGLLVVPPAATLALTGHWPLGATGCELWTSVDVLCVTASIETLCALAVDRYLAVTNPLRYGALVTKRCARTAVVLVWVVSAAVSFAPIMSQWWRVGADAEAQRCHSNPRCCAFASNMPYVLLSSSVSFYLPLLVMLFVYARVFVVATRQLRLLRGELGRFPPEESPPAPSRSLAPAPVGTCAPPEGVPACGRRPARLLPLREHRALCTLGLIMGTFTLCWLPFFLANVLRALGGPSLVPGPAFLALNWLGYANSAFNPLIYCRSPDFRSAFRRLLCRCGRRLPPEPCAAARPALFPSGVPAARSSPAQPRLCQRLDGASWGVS

SMILES | Emax ([1]; Table 3) [%] | α1A receptor I.A. ([1]; Table 4) [%] | Emax [2] [%] | EC50 ([2]; Table 4, Test example 1-B) [nM] | Emax ([1]; Table 4) [%] | Emax [3] [%] | Emax [4] [%] | increase in MBP (%) [5] [%] | β3 receptor I.A. ([2]; Table 4, Test example 1-B, maximum response to isoproterenol taken as 100%) [%] | relaxant activity (%) 10^−4 M ([6]; 10^−4 M) [%] | relaxant activity (%) 10^−5 M ([6]; 10^−5 M) [%] | β3 receptor I.A. [7] [%]
NC[C@H](O)c1ccc(O)c(O)c1 [Norepinephrine, reference compound] | 100 | 100 | – | – | – | – | – | – | – | – | – | –
CS(=O)(=O)Nc1cc([C@@H](O)CNCCOc2ccc3c(OC(F)F)n[nH]c3c2)ccc1Cl [Example 9, (R)—N-(2-Chloro-5-(2-(2-(3-(difluoromethoxy)-indazol-6-yloxy)ethylamino)-1-hydroxyethyl)phenyl)methanesulfonamide] | – | – | 51 | 56 | 5 | 30 | 1 | – | – | – | – | –
CS(=O)(=O)Nc1cc([C@@H](O)CNCCOc2ccc3c(C4CCC4)n[nH]c3c2)ccc1F [Example 6, (R)—N-(5-(2-(2-(3-Cyclobutylindazol-6-yloxy)ethylamino)-1-hydroxyethyl)-2-fluorophenyl)methanesulfonamide] | – | – | 41 | 54 | 0 | – | – | – | – | – | – | –
CS(=O)(=O)Nc1cc([C@@H](O)CNCCOc2ccc3c(C4CC4)n[nH]c3c2)ccc1Cl [Example 5, (R)—N-(2-Chloro-5-(2-(2-(3-cyclopropylindazol-6-yloxy)ethylamino)-1-hydroxyethyl)phenyl)methanesulfonamide] | – | – | 59 | 19 | 0 | 23 | 9 | – | – | – | – | –
CS(=O)(=O)Nc1cc([C@@H](O)CNCCOc2ccc3c(OC(F)F)n[nH]c3c2)ccc1F [Example 7, (R)—N-(5-(2-(2-(3-(Difluoromethoxy)-indazol-6-yloxy)ethylamino)-1-hydroxyethyl)-2-fluorophenyl)methanesulfonamide] | – | – | 51 | 584 | 5 | – | – | – | – | – | – | –
COC(C)c1n[nH]c2cc(OCCNC[C@H](O)c3cccc(NS(C)(=O)=O)c3)ccc12 (stereo partly drawn) [Example 3, N-(3-((R)-1-Hydroxy-2-(2-(3-(1-methoxyethyl)-indazol-6-yloxy)ethylamino)ethyl)phenyl)methanesulfonamide] | – | – | 60 | 45 | 15 | 4 | 5 | 2.3 ± 0.9 | – | – | – | –
CS(=O)(=O)Nc1cc([C@@H](O)CNCCOc2ccc3c(C4CCC4)n[nH]c3c2)ccc1Cl [Example 8, (R)—N-(2-Chloro-5-(2-(2-(3-cyclobutylindazol-6-yloxy)ethylamino)-1-hydroxyethyl)phenyl)methanesulfonamide] | – | – | 70 | 29 | 0 | 34 | 10 | – | – | – | – | –
CS(=O)(=O)Nc1cc([C@@H](O)CNCCOc2ccc3c(C4CC4)n[nH]c3c2)ccc1F [Example 4, (R)—N-(5-(2-(2-(3-Cyclopropylindazol-6-yloxy)ethylamino)-1-hydroxyethyl)-2-fluorophenyl)methanesulfonamide] | – | – | 52 | 24 | 0 | 9 | 8 | – | – | – | – | –
CC(C)NCC(O)c1ccc(O)c(O)c1 (centres unmarked) [isoproterenol, reference compound] | – | – | – | – | – | – | – | – | 100 | 66.2 | 60.9 | 100
